{
  "source": "patent USRE48461E1",
  "about": "“Modulation of androgen receptor expression” (Ionis Pharmaceuticals, Inc., priority 2012, dated 2021)",
  "key": {"TMPRSS2 mRNA": {"system": "TMPRSS2 mRNA", "assay": "TMPRSS2 expression in C4-2 cells", "assay_type": "cell-based, human", "details": "48 hrs; for Percent inhibition of TMPRSS2 expression: C4-2 cells, CSS + DHT medium", "procedure": "Cells were plated at 1,000 cells per well. […] After an incubation period of 48 hrs, RNA levels of AR, PSA and TMPRSS2 were measured.\nCells were plated at 2,000 cells per well and cultured in CSS media with 1 nM DHT. […] After an incubation period of 48 hrs, RNA levels of AR, PSA and TMPRSS2 were measured."}, "AR mRNA [1]": {"system": "AR mRNA", "assay": "Time-course AR mRNA expression in C4-2B cells (8, 24, 48 hours)", "assay_type": "cell-based, human", "details": "C4-2B cells", "procedure": "C4-2B cells were plated at 1,000 cells per well in complete medium. […] After a treatment period of 8 hours, 24 hours, and 48 hours, AR expression was measured with primer probe set hAR-LTS00943."}, "AR mRNA [2]": {"system": "AR mRNA", "assay": "AR RNA expression in C4-2B cells (complete, CSS+DHT medium; Example 30)", "assay_type": "cell-based, human", "details": "48 hrs", "procedure": "Cells were plated at 1,000 cells per well. […] ISIS 549148 was included as a negative control. […] After an incubation period of 48 hrs, RNA levels of AR, PSA and TMPRSS2 were measured.\nCells were plated at 2,000 cells per well and cultured in CSS media with 1 nM DHT. […] ISIS 549148 was included as a negative control. […] After an incubation period of 48 hrs, RNA levels of AR, PSA and TMPRSS2 were measured. In the absence of DHT, AR expression in C4-2 cells was 188%, PSA expression was 43% and TMPRSS2 expression was 27% compared to the untreated control."}, "AR mRNA [3]": {"system": "AR mRNA", "assay": "AR RNA expression in LNCaP cells (complete, CSS, CSS+DHT medium)", "assay_type": "cell-based, human", "details": "for Percent expression of AR in LNCaP cells cultured in CSS + DHT medium: CSS + DHT (1 nM) medium; for Percent expression of AR in LNCaP cells cultured in CSS + DHT medium / Percent expression of AR in LNCaP cells cultured in CSS medium: 48 hrs; for Percent expression of AR in LNCaP cells cultured in complete medium: 48 hours", "procedure": "Cells were plated at 1,000 cells per well. […] After an incubation period of 48 hours, RNA levels of AR, PSA and TMPRSS2 were measured.\nCells were plated at 2,000 cells per well and cultured in phenol red-free RPMI supplemented with 5% charcoal stripped serum (Gibco) media for 16 hours. […] After an incubation period of 4 hrs, DHT was added to the medium to a final concentration of 1 nM as indicated. RNAs were collected 48 hrs later and levels of AR, PSA and TMPRSS2 were measured."}, "AR V7 variant mRNA": {"system": "AR V7 variant mRNA", "assay": "AR V7 variant RNA in 22RV1 cells", "assay_type": "cell-based, human", "details": "RNAiMax, 48 hrs"}, "PSA mRNA": {"system": "PSA mRNA", "assay": "PSA expression in 22RV1 cells", "assay_type": "cell-based, human", "details": "RNAiMax, 48 hrs", "procedure": "Cells were plated at 1,000 cells per well. […] After an incubation period of 48 hrs, RNA levels of full length AR, the V7 variant, PSA and TMPRSS2 were measured.\nAfter an incubation period of 48 hrs, RNA levels of full length AR, the V7 variant, PSA and TMPRSS2 were measured.\nCells were plated at 2,000 cells per well and cultured in CSS media for 16 hours. […] After 4 hrs, 1 nM DHT was added. […] After an incubation period of 48 hrs, RNA levels of AR, AR V7 variant, PSA and TMPRSS2 were measured."}, "MDA-MB-453 tumor": {"system": "MDA-MB-453 tumor", "assay": "Tumor volume in MDA-MB-453 breast cancer orthotopic model", "assay_type": "in vivo, NSG mice", "details": "Study 2, MDA-MB-453 model, NSG mice, 50 mg/kg s.c. 5 days per week for 2 weeks"}},
  "data": [
    {"sequence": "GGCTACTACGCCGTCA (3-10-3 (S)-cEt gapmer, chemistry not fully specified) [ISIS 549148, reference compound]", "values": [
      {"measurement": "Percent inhibition of TMPRSS2 expression", "setting": "TMPRSS2 mRNA; 0.04 μM", "value": 3, "unit": "%"},
      {"measurement": "Percent inhibition of TMPRSS2 expression", "setting": "TMPRSS2 mRNA; 0.2 μM", "value": 0, "unit": "%"},
      {"measurement": "Percent inhibition of TMPRSS2 expression", "setting": "TMPRSS2 mRNA; 1 μM", "value": 22, "unit": "%"},
      {"measurement": "Percent inhibition of TMPRSS2 expression", "setting": "TMPRSS2 mRNA; 5.0 μM", "value": 28, "unit": "%"},
      {"measurement": "Percent inhibition of TMPRSS2 expression in C4-2 cells cultured in complete medium", "setting": "TMPRSS2 mRNA; 0.04 μM", "value": 2, "unit": "%"},
      {"measurement": "Percent inhibition of TMPRSS2 expression in C4-2 cells cultured in complete medium", "setting": "TMPRSS2 mRNA; 0.2 μM", "value": 7, "unit": "%"},
      {"measurement": "Percent inhibition of TMPRSS2 expression in C4-2 cells cultured in complete medium", "setting": "TMPRSS2 mRNA; 1 μM", "value": 10, "unit": "%"},
      {"measurement": "Percent inhibition of TMPRSS2 expression in C4-2 cells cultured in complete medium", "setting": "TMPRSS2 mRNA; 5.0 μM", "value": 0, "unit": "%"},
      {"measurement": "Percent expression of AR compared to the control group in 8 hours", "setting": "AR mRNA [1]; 0.04 μM", "value": 116, "unit": "%"},
      {"measurement": "Percent expression of AR compared to the control group in 24 hours", "setting": "AR mRNA [1]; 0.04 μM", "value": 87, "unit": "%"},
      {"measurement": "Percent expression of AR compared to the control group in 48 hours", "setting": "AR mRNA [1]; 0.04 μM", "value": 98, "unit": "%"},
      {"measurement": "Percent expression of AR compared to the control group in 8 hours", "setting": "AR mRNA [1]; 0.2 μM", "value": 105, "unit": "%"},
      {"measurement": "Percent expression of AR compared to the control group in 24 hours", "setting": "AR mRNA [1]; 0.2 μM", "value": 85, "unit": "%"},
      {"measurement": "Percent expression of AR compared to the control group in 48 hours", "setting": "AR mRNA [1]; 0.2 μM", "value": 90, "unit": "%"},
      {"measurement": "Percent expression of AR compared to the control group in 24 hours", "setting": "AR mRNA [1]; 1 μM", "value": 87, "unit": "%"},
      {"measurement": "Percent expression of AR compared to the control group in 48 hours", "setting": "AR mRNA [1]; 1 μM", "value": 87, "unit": "%"},
      {"measurement": "Percent expression of AR compared to the control group in 8 hours", "setting": "AR mRNA [1]; 5.0 μM", "value": 110, "unit": "%"},
      {"measurement": "Percent expression of AR compared to the control group in 24 hours", "setting": "AR mRNA [1]; 5.0 μM", "value": 107, "unit": "%"},
      {"measurement": "Percent expression of AR compared to the control group in 48 hours", "setting": "AR mRNA [1]; 5.0 μM", "value": 99, "unit": "%"},
      {"measurement": "Percent expression of AR", "setting": "AR mRNA [2]; CSS + DHT medium, 0.04 μM", "value": 91, "unit": "%"},
      {"measurement": "Percent expression of AR", "setting": "AR mRNA [2]; CSS + DHT medium, 0.2 μM", "value": 104, "unit": "%"},
      {"measurement": "Percent expression of AR", "setting": "AR mRNA [2]; CSS + DHT medium, 1 μM", "value": 101, "unit": "%"},
      {"measurement": "Percent expression of AR", "setting": "AR mRNA [2]; CSS + DHT medium, 5.0 μM", "value": 95, "unit": "%"},
      {"measurement": "Percent expression of AR", "setting": "AR mRNA [2]; complete medium, 0.04 μM", "value": 101, "unit": "%"},
      {"measurement": "Percent expression of AR", "setting": "AR mRNA [2]; complete medium, 0.2 μM", "value": 91, "unit": "%"},
      {"measurement": "Percent expression of AR", "setting": "AR mRNA [2]; complete medium, 1 μM", "value": 88, "unit": "%"},
      {"measurement": "Percent expression of AR", "setting": "AR mRNA [2]; complete medium, 5.0 μM", "value": 87, "unit": "%"},
      {"measurement": "Percent expression of AR in LNCaP cells cultured in CSS + DHT medium", "setting": "AR mRNA [3]; 0.04 μM", "value": 98, "unit": "%"},
      {"measurement": "Percent expression of AR in LNCaP cells cultured in CSS + DHT medium", "setting": "AR mRNA [3]; 0.2 μM", "value": 102, "unit": "%"},
      {"measurement": "Percent expression of AR in LNCaP cells cultured in CSS + DHT medium", "setting": "AR mRNA [3]; 1 μM", "value": 96, "unit": "%"},
      {"measurement": "Percent expression of AR in LNCaP cells cultured in CSS medium", "setting": "AR mRNA [3]; 0.04 μM", "value": 106, "unit": "%"},
      {"measurement": "Percent expression of AR in LNCaP cells cultured in CSS medium", "setting": "AR mRNA [3]; 0.2 μM", "value": 97, "unit": "%"},
      {"measurement": "Percent expression of AR in LNCaP cells cultured in CSS medium", "setting": "AR mRNA [3]; 1 μM", "value": 96, "unit": "%"},
      {"measurement": "Percent expression of AR in LNCaP cells cultured in CSS medium", "setting": "AR mRNA [3]; 5.0 μM", "value": 104, "unit": "%"},
      {"measurement": "Percent expression of AR in LNCaP cells cultured in complete medium", "setting": "AR mRNA [3]; 0.04 μM", "value": 102, "unit": "%"},
      {"measurement": "Percent expression of AR in LNCaP cells cultured in complete medium", "setting": "AR mRNA [3]; 1 μM", "value": 109, "unit": "%"},
      {"measurement": "Percent expression of AR in LNCaP cells cultured in complete medium", "setting": "AR mRNA [3]; 5.0 μM", "value": 109, "unit": "%"},
      {"measurement": "Percent inhibition of AR V7 variant", "setting": "AR V7 variant mRNA; CSS + DHT medium, 1.34 nM", "value": 19, "unit": "%"},
      {"measurement": "Percent inhibition of AR V7 variant", "setting": "AR V7 variant mRNA; CSS + DHT medium, 4.0 nM", "value": 19, "unit": "%"},
      {"measurement": "Percent inhibition of AR V7 variant", "setting": "AR V7 variant mRNA; CSS + DHT medium, 13.4 nM", "value": 32, "unit": "%"},
      {"measurement": "Percent inhibition of AR V7 variant", "setting": "AR V7 variant mRNA; complete medium, 1.34 nM", "value": 0, "unit": "%"},
      {"measurement": "Percent inhibition of AR V7 variant", "setting": "AR V7 variant mRNA; complete medium, 4.0 nM", "value": 0, "unit": "%"},
      {"measurement": "Percent inhibition of AR V7 variant", "setting": "AR V7 variant mRNA; complete medium, 13.4 nM", "value": 22, "unit": "%"},
      {"measurement": "Percent inhibition of AR V7 variant", "setting": "AR V7 variant mRNA; complete medium, 40 nM", "value": 26, "unit": "%"},
      {"measurement": "Percent inhibition of PSA expression", "setting": "PSA mRNA; CSS + DHT medium, 1.34 nM", "value": 8, "unit": "%"},
      {"measurement": "Percent inhibition of PSA expression", "setting": "PSA mRNA; CSS + DHT medium, 4.0 nM", "value": 23, "unit": "%"},
      {"measurement": "Percent inhibition of PSA expression", "setting": "PSA mRNA; CSS + DHT medium, 13.4 nM", "value": 29, "unit": "%"},
      {"measurement": "Percent inhibition of PSA expression", "setting": "PSA mRNA; complete medium, 1.34 nM", "value": 9, "unit": "%"},
      {"measurement": "Percent inhibition of PSA expression", "setting": "PSA mRNA; complete medium, 4.0 nM", "value": 11, "unit": "%"},
      {"measurement": "Percent inhibition of PSA expression", "setting": "PSA mRNA; complete medium, 13.4 nM", "value": 17, "unit": "%"},
      {"measurement": "Percent inhibition of PSA expression", "setting": "PSA mRNA; complete medium, 40 nM", "value": 27, "unit": "%"},
      {"measurement": "Tumor volumes", "setting": "MDA-MB-453 tumor; Day 0", "value": 148},
      {"measurement": "Tumor volumes", "setting": "MDA-MB-453 tumor; Day 8", "value": 303},
      {"measurement": "Tumor volumes", "setting": "MDA-MB-453 tumor; Day 13", "value": 312},
      {"measurement": "Tumor volumes", "setting": "MDA-MB-453 tumor; Day 20", "value": 365},
      {"measurement": "Tumor volumes", "setting": "MDA-MB-453 tumor; Day 23", "value": 413},
      {"measurement": "Tumor volumes", "setting": "MDA-MB-453 tumor; Day 27", "value": 490},
      {"measurement": "Tumor volumes", "setting": "MDA-MB-453 tumor; Day 29", "value": 550}
    ]}
  ]
}
